Data published in patent publication US20210198647A1, “Enhancers of Neurolysin Activity” (Texas Tech University System, priority 2018, published 2021).
“And” between values parts separate entries of the source, which are not always exact repeats. Equal entries are not always repeated. Where two headings read alike, the source gives them in different places. Square brackets hold non-standard residues; d marks the D form. Peptide text beside a SMILES is read from it. * marks the point of attachment. Boc = CC(C)(C)OC(=O)*

Target: T1, Neurolysin (Nln) (Rattus norvegicus, UniProt P42676)
T1 construct: polyhistidine (N); made in house; host or cells: Escherichia coli (pBAD/His vector), if the rat enzyme of b61 was used
Assay: Nln activation in isolated enzyme assay (A50, Amax)
Type: biochemical
Conditions: for EC50: read-out: A50 (concentration required to activate Nln by 50%)

[1] = 100% = normal enzyme turnover, 95% CI in parentheses

T1 sequence (P42676 38-704): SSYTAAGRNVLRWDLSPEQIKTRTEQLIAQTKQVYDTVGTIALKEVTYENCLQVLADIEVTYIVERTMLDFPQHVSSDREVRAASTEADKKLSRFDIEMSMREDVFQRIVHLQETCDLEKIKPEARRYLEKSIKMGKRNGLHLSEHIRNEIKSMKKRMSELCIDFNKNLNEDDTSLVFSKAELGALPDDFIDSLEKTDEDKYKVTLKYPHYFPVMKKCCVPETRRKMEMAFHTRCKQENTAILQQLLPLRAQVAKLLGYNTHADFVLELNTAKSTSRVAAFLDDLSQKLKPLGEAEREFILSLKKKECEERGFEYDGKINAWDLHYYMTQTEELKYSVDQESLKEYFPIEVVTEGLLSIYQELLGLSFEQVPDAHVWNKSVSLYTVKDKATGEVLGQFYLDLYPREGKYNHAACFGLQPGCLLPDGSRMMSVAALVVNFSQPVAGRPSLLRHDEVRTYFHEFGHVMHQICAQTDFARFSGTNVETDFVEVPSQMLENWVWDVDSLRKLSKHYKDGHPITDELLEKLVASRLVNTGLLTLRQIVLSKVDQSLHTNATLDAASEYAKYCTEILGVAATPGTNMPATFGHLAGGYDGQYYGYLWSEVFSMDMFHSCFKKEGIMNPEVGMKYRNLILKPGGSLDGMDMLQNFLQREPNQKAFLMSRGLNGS

Structure (SMILES)	Amax (maximum % activation achieved)	Amax (maximum % activation achieved) [1]	other results
N[C@@H](Cc1c[nH]cn1)C(=O)N[C@H](Cc1c[nH]cn1)C(=O)O [Compound 2]		202.8 (192.2 to 213.4) %	
N[C@H](Cc1c[nH]cn1)C(=O)NCc1ccc2ccccc2c1 [Compound 10b, (R)-2-amino-3-(1H-imidazol-4-yl)-N-(naphthalen-2-ylmethyl)propanamide]		197.5 (184.9 to 214.8) %	EC50 (95% CI in parentheses): 6.3 µM
COc1ccc(CCNC(=O)[C@H](N)Cc2c[nH]cn2)cc1 [Compound 4f, (R)-2-amino-3-(1H-imidazol-4-yl)-N-(4-methoxyphenethyl)propanamide]		378.3 (350.5 to 411.9) %	
N[C@H](Cc1c[nH]cn1)C(=O)Nc1cccc2cccnc12 [Compound 11b, (R)-2-amino-3-(1H-imidazol-4-yl)-N-(quinolin-8-yl)propanamide]		255.2 (239.9 to 278.9) %	
N[C@H](Cc1c[nH]cn1)C(=O)NCCc1ccccc1 [AB-2-7-2]		407 (382.7 to 434.9) %	
N[C@H](Cc1c[nH]cn1)C(=O)NCCCCc1ccccc1 [Compound 8b, (R)-2-amino-3-(1H-imidazol-4-yl)-N-(4-phenylbutyl)propanamide]		233.8 (215.9 to 254.8) %	
N[C@@H](Cc1c[nH]cn1)C(=O)Nc1ccccc1 (single isomer, unassigned) [DF-5-2A]		139.8 (124.7 to 158.4) %	EC50 (95% CI in parentheses): 7.74 µM
N[C@@H](Cc1c[nH]cn1)C(=O)N1CCCC1 [SR-5-3d]		173 (158.5 to 194.1) %	
N[C@@H](Cc1c[nH]cn1)C(=O)NCCc1ccc(F)cc1 [DF-2-2B]		323.1 (311.4 to 335.6) %	EC50 (95% CI in parentheses): 27.9 µM
O=C(CCc1cnc[nH]1)NCCc1c[nH]c2ccccc12 [PT-1-177]		Inactive	A50 (concentration required to activate Nln by 50%) (95% CI in parentheses): Inactive
N[C@@H](Cc1ccccn1)C(=O)NCCc1ccccc1 [AB-1-3-2]		Inactive	A50 (concentration required to activate Nln by 50%) (95% CI in parentheses): Inactive
N[C@H](C(=O)N1CCC[C@H]1C(=O)O)c1c[nH]cn1 [His-Pro]	502 (488.4 to 515.7) %		
N[C@H](Cc1c[nH]cn1)C(=O)NCCCc1ccccc1 [Compound 7b, (R)-2-amino-3-(1H-imidazol-4-yl)-N-(3-phenylpropyl)propanamide]		281.8 (269.9-294.5) %	
N[C@@H](Cc1c[nH]cn1)C(=O)NCCc1ccccc1 [NK-61-4A]		231 (216.2 to 248.9) %	
CC(C)(C)OC(=O)N[C@@H](Cc1c[nH]cn1)C(=O)NCCc1cc2ccccc2[nH]1 [PT-1-172]		Inactive	A50 (concentration required to activate Nln by 50%) (95% CI in parentheses): Inactive
N[C@@H](Cc1c[nH]cn1)C(=O)NCc1ccc2ccccc2c1 [DF-9-2]		262.3 (246.7 to 279.4) %	EC50 (95% CI in parentheses): 12.3 µM

Structure (SMILES)	Amax (maximum % activation achieved)	Amax (maximum % activation achieved) [1]	other results
N[C@@H](Cc1c[nH]cn1)C(=O)N[C@@H](Cc1ccc(O)cc1)C(=O)O [Compound 1, Histidine-tyrosine] (H-His-Tyr-OH)		467 (424.9 to 516.9) %	Amax (maximum % activation achieved) (100% = normal enzyme turnover, 95% CI in parentheses, listed as His-Tyr): 467 (424.9 to 516.9) %
COc1ccc(CCNC(=O)[C@@H](N)Cc2c[nH]cn2)cc1 [Compound 4e, (S)-2-amino-3-(1H-imidazol-4-yl)-N-(4-methoxyphenethyl)propanamide]		339.4 (314.2 to 369.3) %	
N[C@H](Cc1c[nH]cn1)C(=O)Nc1ccccc1 [Compound 6b, (R)-2-amino-3-(1H-imidazol-4-yl)-N-phenylpropanamide]		440.3 (414.9 to 470.4) %	EC50 (95% CI in parentheses): 114 µM
N[C@H](Cc1c[nH]cn1)C(=O)NCc1cccc2ccccc12 [SR-10-1d]		343 (325.2 to 363.5) %	
CC(C)(C)OC(=O)N[C@@H](Cc1c[nH]cn1)C(=O)N[C@H](Cc1ccccc1)C(=O)O [NK-61-2A] (Boc-His-[dF]-OH)		Inactive	A50 (concentration required to activate Nln by 50%) (95% CI in parentheses): Inactive
N[C@@H](Cc1c[nH]cn1)C(=O)NCCCc1ccccc1 [Compound 7a, (S)-2-amino-3-(1H-imidazol-4-yl)-N-(3-phenylpropyl)propanamide]		288.1 (273.6 to 303.8) %	
O=C1NC(Cc2c[nH]cn2)C(=O)N2CCCC12 (stereo not shown) [Cyclo(His-Pro)]		Inactive	A50 (concentration required to activate Nln by 50%) (95% CI in parentheses): Inactive
N[C@H](Cc1c[nH]cn1)C(=O)NCc1cccc2ccccc12 [Compound 10d, (R)-2-amino-3-(1H-imidazol-4-yl)-N-(naphthalen-1-ylmethyl)propanamide]		343 (325.2 to 363.5) %	
N[C@@H](Cc1c[nH]cn1)C(=O)N[C@@H](Cc1ccccc1)C(=O)O (stereo in doubt) [Compound 3, His-Phe]		573 (547.9 to 602.7) %	EC50 (95% CI in parentheses): 130 µM; Amax (maximum % activation achieved) (100% = normal enzyme turnover, 95% CI in parentheses, listed as His-Phe): 573 (547.9 to 602.7) %
CC(C)(C)OC(=O)N[C@@H](Cc1c[nH]cn1)C(=O)N[C@H](Cc1ccccc1)C(=O)O [Compound 4b] (Boc-His-[dF]-OH)			Nln activation (in words): inactive
N[C@@H](Cc1c[nH]cn1)C(=O)NCCc1ccccc1 [Compound 4c, (S)-2-amino-3-(1H-imidazol-4-yl)-N-phenethylpropanamide]		337.2 (302-378.6) %	
COc1ccc(CCNC(=O)[C@@H](N)Cc2c[nH]cn2)cc1 [AB-1-4-2]		544 (492.2 to 609.4) %	
N[C@@H](Cc1c[nH]cn1)C(=O)NCCc1ccc(F)cc1 [Compound 4m, (S)-2-amino-N-(4-fluorophenethyl)-3-(1H-imidazol-4-yl)propanamide]		323.1 (311.4 to 335.6) %	EC50 (95% CI in parentheses): 28 µM and 27.9 µM
CC(C)(C)OC(=O)N[C@@H](Cc1c[nH]cn1)C(=O)NCCc1ccccc1		Inactive	A50 (concentration required to activate Nln by 50%) (95% CI in parentheses): Inactive
N[C@@H](Cc1c[nH]cn1)C(=O)NCc1cccc2ccccc12 [SR-9-1d]		264 (256.3 to 272.6) %	

Continued, in another order:

Amax (maximum % activation achieved)	Structure (SMILES)	Amax (maximum % activation achieved) [1]	other results
320.5 (299.7 to 343.9) %	N[C@H](Cc1c[nH]cn1)C(=O)NCc1ccc(F)cc1 [Compound 5o, (R)-2-amino-N-(4-fluorobenzyl)-3-(1H-imidazol-4-yl)propanamide]		
327.5 (309.7 to 348.2) %	COc1cccc(CNC(=O)[C@@H](N)Cc2c[nH]cn2)c1 [Compound 5f]		
252 (235.6 to 270.5) %	N[C@@H](Cc1c[nH]cn1)C(=O)NCc1ccc(F)cc1 [DF-6-2A]		
323.7 (310.3 to 337.9) %	N[C@@H](Cc1c[nH]cn1)C(=O)NCCc1ccc2ccccc2c1 [SR18-1]		
259 (240.7 to 281) %	N[C@@H](Cc1c[nH]cn1)C(=O)NCCc1cc2ccccc2[nH]1 [SR-7-2d]		
598.8 (532.8 to 692.9) %	N[C@H](Cc1c[nH]cn1)C(=O)NCc1ccc(C(F)(F)F)cc1 (single isomer, unassigned) [AB1-17-2]		
396.2 (384.5 to 408.5) %	N[C@H](Cc1c[nH]cn1)C(=O)NCCc1ccccc1C(F)(F)F [HP2CF3]		
428.8 (373 to 523.5) %	COc1ccc(CNC(=O)[C@@H](N)Cc2c[nH]cn2)cc1 [SR20-1d]		
477.1 (444 to 516) %	COc1cccc(CNC(=O)[C@H](N)Cc2cnc[nH]2)c1 [AB-1-14-2]		
184.4 (169.4 to 201.5) %	N[C@H](Cc1cnc[nH]1)C(=O)NCc1cccc(C(F)(F)F)c1 [AB-1-9-2]		
267.5 (250.1 to 287.1) %	N[C@H](Cc1c[nH]cn1)C(=O)NCCc1ccc([N+](=O)[O-])cc1 [Compound 4p, (R)-2-amino-3-(1H-imidazol-4-yl)-N-(4-nitrophenethyl)propanamide]		
438.4 (379.4 to 520.4) %	N[C@@H](Cc1c[nH]cn1)C(=O)NCCc1ccc(C(F)(F)F)cc1 [AB 3-2-2]		
311 (298.6 to 325.7) %	NC(Cc1c[nH]cn1)C(=O)NCCc1cc2ccccc2[nH]1 (racemic) [(±)PT-1-173 RACEMIC]		
494.4 (476.7 to 512.9) %	N[C@@H](Cc1c[nH]cn1)C(=O)NCc1cccc(C(F)(F)F)c1 [AB-1-6-2]		
310 (287.2 to 336.1) %	N[C@@H](Cc1c[nH]cn1)C(=O)NCc1ccc(OC(F)(F)F)cc1 [Compound 5p]		
345.8 (317.5 to 378.3) %	N[C@H](Cc1c[nH]cn1)C(=O)NCc1ccccc1C(F)(F)F [Compound 5k, (R)-2-amino-3-(1H-imidazol-4-yl)-N-(2-(trifluoromethyl)benzyl)propanamide]		
385.8 (363.8 to 410.5) %	COc1ccccc1CNC(=O)[C@@H](N)Cc1c[nH]cn1 [Compound 5d]		
339.8 (325.4 to 355.4) %	N[C@H](Cc1c[nH]cn1)C(=O)NCCc1ccc2ccccc2c1 [SR19-2d]		
319.1 (296.3 to 344.3) %	N[C@H](Cc1c[nH]cn1)C(=O)NCc1ccc(C(F)(F)F)cc1 [Compound 5i, (R)-2-amino-3-(1H-imidazol-4-yl)-N-(4-(trifluoromethyl)benzyl)propanamide]		
324.9 (304 to 349) %	COc1ccccc1CNC(=O)[C@H](N)Cc1c[nH]cn1 [SR16-1d]		
337.1 (312 to 364.9) %	N[C@H](Cc1c[nH]cn1)C(=O)NCc1ccc(OC(F)(F)F)cc1 [Compound 5q, (R)-2-amino-3-(1H-imidazol-4-yl)-N-(4-(trifluoromethoxy)benzyl)propanamide]		
287.5 (277.4 to 298.4) %	N[C@@H](Cc1c[nH]cn1)C(=O)NCc1ccc(SC(F)(F)F)cc1 [Compound 5r]		
132 (122.5 to 143.6) %	N[C@H](Cc1c[nH]cn1)C(=O)NCCc1cc2ccccc2[nH]1 [SR-8-2d]		
643 (588.8 to 714) %	N[C@H](Cc1c[nH]cn1)C(=O)NCCc1ccc(C(F)(F)F)cc1 (single isomer, unassigned) [AB-1-8-2]		
